Read-outs that look alike come from different tables or passages of the source. Numbered stars: 1 amine (or outer) side, 2 acyl side, 3 side chain; on linkers, the order of the positions; unused ones are H or OH. Bridge positions count the residues as written; N and C are the ends. Square brackets hold non-standard residues; d marks the D form. Peptide text beside a SMILES is read from it. * marks the point of attachment. TtdsdLys(DOTA)NH2 = NC(=O)[C@@H](CCCCNC(=O)CN1CCN(CC(=O)O)CCN(CC(=O)O)CCN(CC(=O)O)CC1)NC(=O)CCC(=O)NCCCOCCOCCOCCCN*; X12 = O=C(O)CN1CCOCCN(CC(=O)O)CCN(CC(=O)*)CCOCCN(CC(=O)O)CC1; Phe(4-Cl) = N[C@@H](Cc1ccc(Cl)cc1)C(=O)O; Propanoyl(3-SO2NH2) = NS(=O)(=O)CCC(=O)*; Arg(Me) = CNC(=N)NCCC[C@H](N)C(=O)O; X1 = O=C(CC1CCN([*:1])CC1)[*:2]; Lys(Me) = CNCCCC[C@H](N)C(=O)O; Tle = CC(C)(C)[C@H](N)C(=O)O; Aib = CC(C)(N)C(=O)O; βAla = NCCC(=O)O; NHBu = CCCCN*
Key:
[1] = target: T1, Fc-fusion protein of human PSMA (hPSMA-Fc) (Homo sapiens, UniProt Q04609); experiment: Surface plasmon resonance assay (Biacore T200, single cycle kinetic); format: binding; conditions: hPSMA-Fc, 25° C., read-out: pKD CAT (converted)
T1 construct: purchased Acro Biosystems PSA-H5264
Summary of the method: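 hPSMA-Fc was captured (~1000 RU) on an Fc-binding-peptide CM5 chip, and compounds were run in single cycle kinetic mode at 25° C in HBST with 0.1% DMSO. Double-blank-corrected sensorgrams were fitted to a 1:1 Langmuir model to give KD, reported as pKD.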

[2] = target: T2, PSMA-expressing C4-2 cells (Homo sapiens, UniProt Q04609); experiment: FACS binding assay (competition with 50 nM PSM-0183); conditions: C4-2 cells, read-out: pIC50 [C4-2] CAT (converted)
T2 construct: PSMA-expressing C4-2 cells (ATCC, Cat. No. CRL-3314) were cultured in RPMI-1640; host or cells: C4-2 cells
Summary of the method: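 C4-2 cells were incubated 1 h at 4 °C with 50 nM AF488-labelled peptide PSM-0183 plus increasing test compound concentrations, then washed twice in ice-cold buffer. Median fluorescence in the AF488 channel was read by flow cytometry. IC50/pIC50 was derived by 4PL fitting of MFI versus concentration.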

[3] = pKD category for PSMA SPR activity assay
[4] = SPR, single cycle kinetic, category
[5] = FACS binding, competition with 50 nM PSM-0183, category

T2 sequence (Q04609 whole entry): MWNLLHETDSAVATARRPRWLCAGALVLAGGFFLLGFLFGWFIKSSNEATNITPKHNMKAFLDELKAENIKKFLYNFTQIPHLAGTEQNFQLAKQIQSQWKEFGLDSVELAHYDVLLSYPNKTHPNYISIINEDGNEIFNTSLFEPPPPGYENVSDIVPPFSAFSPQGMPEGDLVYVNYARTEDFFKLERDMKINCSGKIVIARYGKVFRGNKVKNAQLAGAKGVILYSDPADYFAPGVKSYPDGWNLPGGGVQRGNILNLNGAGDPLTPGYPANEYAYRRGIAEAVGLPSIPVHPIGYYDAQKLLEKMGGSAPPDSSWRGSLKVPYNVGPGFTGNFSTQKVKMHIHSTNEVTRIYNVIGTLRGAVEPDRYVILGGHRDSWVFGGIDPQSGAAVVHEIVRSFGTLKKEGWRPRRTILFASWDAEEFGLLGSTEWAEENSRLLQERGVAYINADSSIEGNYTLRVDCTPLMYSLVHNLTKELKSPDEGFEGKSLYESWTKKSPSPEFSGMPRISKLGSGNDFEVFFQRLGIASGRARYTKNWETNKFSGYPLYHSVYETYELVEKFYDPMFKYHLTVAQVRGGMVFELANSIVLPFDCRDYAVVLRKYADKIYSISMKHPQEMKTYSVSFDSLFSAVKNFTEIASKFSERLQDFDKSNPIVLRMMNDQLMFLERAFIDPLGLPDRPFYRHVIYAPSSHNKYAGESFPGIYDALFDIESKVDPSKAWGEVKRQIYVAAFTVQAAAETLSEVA
T1 sequence (Q04609 44-750 limits assumed): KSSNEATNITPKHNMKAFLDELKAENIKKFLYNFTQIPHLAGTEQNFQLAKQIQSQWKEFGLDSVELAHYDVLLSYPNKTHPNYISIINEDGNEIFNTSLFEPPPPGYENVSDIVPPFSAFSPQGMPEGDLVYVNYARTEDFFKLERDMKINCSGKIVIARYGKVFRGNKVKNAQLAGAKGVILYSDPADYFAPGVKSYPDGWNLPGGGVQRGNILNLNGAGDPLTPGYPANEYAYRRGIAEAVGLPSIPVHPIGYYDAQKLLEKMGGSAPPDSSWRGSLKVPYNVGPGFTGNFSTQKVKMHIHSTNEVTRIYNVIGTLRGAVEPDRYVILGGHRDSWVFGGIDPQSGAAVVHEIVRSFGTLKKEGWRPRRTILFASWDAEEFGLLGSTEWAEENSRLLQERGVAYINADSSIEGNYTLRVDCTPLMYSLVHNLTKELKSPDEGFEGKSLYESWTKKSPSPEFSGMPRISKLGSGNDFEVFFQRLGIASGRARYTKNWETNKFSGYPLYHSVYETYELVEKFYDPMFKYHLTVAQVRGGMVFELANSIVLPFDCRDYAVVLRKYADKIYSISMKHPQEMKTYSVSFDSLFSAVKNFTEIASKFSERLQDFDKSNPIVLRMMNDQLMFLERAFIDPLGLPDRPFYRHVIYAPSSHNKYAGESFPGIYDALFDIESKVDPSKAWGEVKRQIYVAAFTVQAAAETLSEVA

| SMILES | Kd [1, 3] [nM] | IC50 ([2]; pIC50 category of FACS binding) [nM] | Kd [1, 4] [nM] | IC50 [2, 5] [nM] |
| --- | --- | --- | --- | --- |
| CC(=O)N[C@H](C(=O)NC(C)(C)C(=O)N[C@@H](Cc1ccccc1)C(=O)N[C@H]1CSSC[C@@H](C(=O)N[C@H](C(=O)N[C@H](C(=O)N[C@@H](CC(=O)O)C(=O)NCCCOCCOCCOCCCNC(=O)CCC(=O)N[C@H](CCCCNC(=O)CN2CCN(CC(=O)O)CCN(CC(=O)O)CCN(CC(=O)O)CC2)C(N)=O)[C@@H](C)O)C(C)(C)C)NC(=O)[C@H](CC(N)=O)NC(=O)C(C)(C)NC(=O)[C@H](CCCNC(=N)N)NC(=O)[C@H](CCCCN)NC1=O)[C@@H](C)O [PSM-0212, Ac-Thr-Aib-Phe-[Cys-Lys-Arg-Aib-Asn-Cys]-Tle-Thr-Asp-Ttds-lys(DOTA)-NH2] (Ac-T[Aib]FCKR[Aib]NC[Tle]TD-{TtdsdLys(DOTA)NH2}; disulfide 4-9) | – | – | < 12.6 | < 200 |
| CC(=O)N[C@H](C(=O)NC(C)(C)C(=O)N[C@@H](Cc1ccc(Cl)cc1)C(=O)N[C@H]1CSSC[C@@H](C(=O)N[C@H](C(N)=O)C(C)(C)C)NC(=O)[C@H](CC(N)=O)NC(=O)C(C)(C)NC(=O)[C@H](CCCNC(=N)N)NC(=O)[C@H](CCCCN)NC1=O)[C@@H](C)O [PSM-0367, Ac-Thr-Aib-Pcf-[Cys-Lys-Arg-Aib-Asn-Cys]-Tle-NH2] (Ac-T[Aib][Phe(4-Cl)]CKR[Aib]NC[Tle]-NH2; disulfide 4-9) | < 12.6 | < 200 | – | – |
| CNCCCC[C@@H]1NC(=O)[C@@H](NC(=O)[C@H](Cc2ccc(Cl)cc2)NC(=O)C(C)(C)NC(=O)[C@@H](NC(=O)CC2CCN(C(=O)CN3CCOCCN(CC(=O)O)CCN(CC(=O)O)CCOCCN(CC(=O)O)CC3)CC2)[C@@H](C)O)CSSC[C@@H](C(=O)N[C@H](C(=O)N[C@H](C(N)=O)[C@@H](C)O)C(C)(C)C)NC(=O)[C@H](CC(N)=O)NC(=O)C(C)(C)NC(=O)[C@H](CCCNC(=N)NC)NC1=O [PSM-0495, Crown-Cmp-Thr-Aib-Pcf-[Cys-Lys(Me)-Arg(Me)-Aib-Asn-Cys]-Tle-Thr-NH2] (X12-[X1]T[Aib][Phe(4-Cl)]C[Lys(Me)][Arg(Me)][Aib]NC[Tle]T-NH2; disulfide 5-10) | < 12.6 | < 200 | – | – |

Now from value to molecule:

| Kd [1, 3] [nM] | IC50 ([2]; pIC50 category of FACS binding) [nM] | Kd [1, 4] [nM] | IC50 [2, 5] [nM] | SMILES |
| --- | --- | --- | --- | --- |
| < 12.6 | < 200 | – | – | CCCCNC(=O)[C@@H](NC(=O)[C@@H]1CSSC[C@H](NC(=O)[C@H](Cc2ccccc2)NC(=O)C(C)(C)NC(=O)[C@@H](NC(C)=O)[C@@H](C)O)C(=O)N[C@@H](CCCCN)C(=O)N[C@@H](CCCNC(=N)N)C(=O)NC(C)(C)C(=O)N[C@@H](CC(N)=O)C(=O)N1)C(C)(C)C [PSM-0510, Ac-Thr-Aib-Phe-[Cys-Lys-Arg-Aib-Asn-Cys]-Tle-NHBu] (Ac-T[Aib]FCKR[Aib]NC[Tle]-NHBu; disulfide 4-9) |
| < 12.6 | < 200 | – | – | CC(=O)N[C@H](C(=O)NC(C)(C)C(=O)N[C@@H](Cc1ccccc1)C(=O)N[C@H]1CSSC[C@@H](C(=O)N[C@H](C(=O)N[C@H](C(N)=O)[C@@H](C)O)C(C)(C)C)NC(=O)[C@@H](CC(N)=O)NC(=O)C(C)(C)NC(=O)[C@H](CCCNC(=N)N)NC(=O)[C@H](CCCCN)NC1=O)[C@@H](C)O [PSM-0402, Ac-Thr-Aib-Phe-[Cys-Lys-Arg-Aib-asn-Cys]-Tle-Thr-NH2] (Ac-T[Aib]FCKR[Aib][dN]C[Tle]T-NH2; disulfide 4-9) |
| < 12.6 | < 200 | – | – | CC(=O)N[C@H](C(=O)NC(C)(C)C(=O)N[C@@H](Cc1ccccc1)C(=O)N[C@H]1CSSC[C@@H](C(=O)N[C@H](C(=O)NCCC(N)=O)C(C)(C)C)NC(=O)[C@H](CC(N)=O)NC(=O)C(C)(C)NC(=O)[C@H](CCCNC(=N)N)NC(=O)[C@H](CCCCN)NC1=O)[C@@H](C)O [PSM-0426, Ac-Thr-Aib-Phe-[Cys-Lys-Arg-Aib-Asn-Cys]-Tle-Bal-NH2] (Ac-T[Aib]FCKR[Aib]NC[Tle][βAla]-NH2; disulfide 4-9) |
| – | – | < 12.6 | < 200 | C[C@@H](O)[C@H](NC(=O)[C@@H](NC(=O)[C@@H]1CSSC[C@H](NC(=O)[C@H](Cc2ccccc2)NC(=O)C(C)(C)NC(=O)CCS(N)(=O)=O)C(=O)N[C@@H](CCCCN)C(=O)N[C@@H](CCCNC(=N)N)C(=O)NC(C)(C)C(=O)N[C@@H](CC(N)=O)C(=O)N1)C(C)(C)C)C(N)=O [PSM-0224, SaPr-Aib-Phe-[Cys-Lys-Arg-Aib-Asn-Cys]-Tle-Thr-NH2] ({Propanoyl(3-SO2NH2)}-[Aib]FCKR[Aib]NC[Tle]T-NH2; disulfide 3-8) |

Reference: patent US20260083865A1, “PROSTATE SPECIFIC MEMBRANE ANTIGEN (PSMA) LIGANDS AND USE THEREOF” (priority 2022, published 2026)
